PubChem BioAssay (NCI)
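Briefly, cells in 96-well plates were exposed to five compound concentrations for 48 h, and endpoints were estimated by linear interpolation. At the GI50, growth is halved. TGI marks complete inhibition of growth.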

How the values were obtained:
Test in all cases: NCI tumour cell line growth inhibition, 48 h
786-0 renal = system: 786-0 renal
A498 renal = system: A498 renal
A549 NSCLC = system: A549 NSCLC
ACHN renal = system: ACHN renal
BT-549 breast = system: BT-549 breast
CAKI-1 renal = system: CAKI-1 renal
CCRF-CEM leukemia = system: CCRF-CEM leukemia
DU-145 prostate = system: DU-145 prostate
EKVX NSCLC = system: EKVX NSCLC
HCC-2998 colon = system: HCC-2998 colon
HCT-116 colon = system: HCT-116 colon
HCT-15 colon = system: HCT-15 colon
HL-60(TB) leukemia = system: HL-60(TB) leukemia
HOP-62 NSCLC = system: HOP-62 NSCLC
HOP-92 NSCLC = system: HOP-92 NSCLC
HS 578T breast = system: HS 578T breast
HT29 colon = system: HT29 colon
IGROV1 ovarian = system: IGROV1 ovarian
K-562 leukemia = system: K-562 leukemia
KM12 colon = system: KM12 colon
LOX IMVI melanoma = system: LOX IMVI melanoma
M14 melanoma = system: M14 melanoma
MALME-3M melanoma = system: MALME-3M melanoma
MCF7 breast = system: MCF7 breast
MDA-MB-231 breast = system: MDA-MB-231 breast
MDA-MB-435 = system: MDA-MB-435
MDA-MB-468 breast = system: MDA-MB-468 breast
MOLT-4 leukemia = system: MOLT-4 leukemia
NCI-H226 lung = system: NCI-H226 lung
NCI-H23 lung = system: NCI-H23 lung
NCI-H522 lung = system: NCI-H522 lung
NCI/ADR-RES ovarian = system: NCI/ADR-RES ovarian
OVCAR-3 ovarian = system: OVCAR-3 ovarian
OVCAR-4 ovarian = system: OVCAR-4 ovarian
OVCAR-5 ovarian = system: OVCAR-5 ovarian
OVCAR-8 ovarian = system: OVCAR-8 ovarian
PC-3 prostate = system: PC-3 prostate
RPMI-8226 leukemia = system: RPMI-8226 leukemia
RXF 393 renal = system: RXF 393 renal
SF-268 CNS = system: SF-268 CNS
SF-295 CNS = system: SF-295 CNS
SF-539 CNS = system: SF-539 CNS
SK-MEL-2 melanoma = system: SK-MEL-2 melanoma
SK-MEL-28 melanoma = system: SK-MEL-28 melanoma
SK-MEL-5 melanoma = system: SK-MEL-5 melanoma
SN12C renal = system: SN12C renal
SNB-19 CNS = system: SNB-19 CNS
SNB-75 CNS = system: SNB-75 CNS
SW-620 colon = system: SW-620 colon
T-47D breast = system: T-47D breast
TK-10 renal = system: TK-10 renal
U251 CNS = system: U251 CNS
UACC-257 melanoma = system: UACC-257 melanoma
UACC-62 melanoma = system: UACC-62 melanoma

Structure (SMILES): Cc1ccc2c(c1)nc(-c1ccccc1)n2CC(=O)N=Nc1c(O)[nH]c2ccc(Br)cc12
- GI50 (786-0 renal): 1730 nM
- TGI (786-0 renal): 3.16 µM
- GI50 (A498 renal): 2000 nM
- TGI (A498 renal): 3.99 µM
- GI50 (A549 NSCLC): 1900 nM
- TGI (A549 NSCLC): 4.03 µM
- GI50 (ACHN renal): 1590 nM
- TGI (ACHN renal): 2940 nM
- GI50 (BT-549 breast): 1850 nM
- TGI (BT-549 breast): 3.53 µM
- GI50 (CAKI-1 renal): 1540 nM
- TGI (CAKI-1 renal): 3.62 µM
- GI50 (CCRF-CEM leukemia): 2090 nM
- TGI (CCRF-CEM leukemia): 4.96 µM
- GI50 (DU-145 prostate): 2290 nM
- TGI (DU-145 prostate): 4.85 µM
- GI50 (EKVX NSCLC): 1380 nM
- TGI (EKVX NSCLC): 2920 nM
- GI50 (HCC-2998 colon): 1850 nM
- TGI (HCC-2998 colon): 3.44 µM
- GI50 (HCT-116 colon): 1740 nM
- TGI (HCT-116 colon): 3.34 µM
- GI50 (HCT-15 colon): 1690 nM
- TGI (HCT-15 colon): 3.18 µM
- GI50 (HL-60(TB) leukemia): 3.16 µM
- TGI (HL-60(TB) leukemia): > 100 µM
- GI50 (HOP-62 NSCLC): 1750 nM
- TGI (HOP-62 NSCLC): 3.39 µM
- GI50 (HOP-92 NSCLC): 1220 nM
- TGI (HOP-92 NSCLC): 2640 nM
- GI50 (HS 578T breast): 1860 nM
- TGI (HS 578T breast): 5.62 µM
- GI50 (HT29 colon): 1780 nM
- TGI (HT29 colon): 3.45 µM
- GI50 (IGROV1 ovarian): 1710 nM
- TGI (IGROV1 ovarian): 3.29 µM
- GI50 (K-562 leukemia): 3.15 µM
- TGI (K-562 leukemia): > 100 µM
- GI50 (KM12 colon): 2060 nM
- TGI (KM12 colon): 4.89 µM
- GI50 (LOX IMVI melanoma): 1550 nM
- TGI (LOX IMVI melanoma): 2910 nM
- GI50 (M14 melanoma): 1690 nM
- TGI (M14 melanoma): 3.35 µM
- GI50 (MALME-3M melanoma): 1630 nM
- TGI (MALME-3M melanoma): 3.1 µM
- GI50 (MCF7 breast): 1540 nM
- TGI (MCF7 breast): 3.16 µM
- GI50 (MDA-MB-231 breast): 1890 nM
- TGI (MDA-MB-231 breast): 4.25 µM
- GI50 (MDA-MB-435): 1680 nM
- TGI (MDA-MB-435): 3.77 µM
- GI50 (MDA-MB-468 breast): 1750 nM
- TGI (MDA-MB-468 breast): 3.18 µM
- GI50 (MOLT-4 leukemia): 2220 nM
- TGI (MOLT-4 leukemia): 5.62 µM
- GI50 (NCI-H226 lung): 1470 nM
- TGI (NCI-H226 lung): 2970 nM
- GI50 (NCI-H23 lung): 1770 nM
- TGI (NCI-H23 lung): 3.36 µM
- GI50 (NCI-H522 lung): 1870 nM
- TGI (NCI-H522 lung): 4.1 µM
- GI50 (NCI/ADR-RES ovarian): 1700 nM
- TGI (NCI/ADR-RES ovarian): 3.27 µM
- GI50 (OVCAR-3 ovarian): 1910 nM
- TGI (OVCAR-3 ovarian): 3.45 µM
- GI50 (OVCAR-4 ovarian): 1830 nM
- TGI (OVCAR-4 ovarian): 3.81 µM
- GI50 (OVCAR-5 ovarian): 1830 nM
- TGI (OVCAR-5 ovarian): 4.28 µM
- GI50 (OVCAR-8 ovarian): 1890 nM
- TGI (OVCAR-8 ovarian): 3.8 µM
- GI50 (PC-3 prostate): 1560 nM
- TGI (PC-3 prostate): 3.16 µM
- GI50 (RPMI-8226 leukemia): 2180 nM
- TGI (RPMI-8226 leukemia): 5.46 µM
- GI50 (RXF 393 renal): 773 nM
- TGI (RXF 393 renal): 2220 nM
- GI50 (SF-268 CNS): 2440 nM
- TGI (SF-268 CNS): 8.56 µM
- GI50 (SF-295 CNS): 1540 nM
- TGI (SF-295 CNS): 2930 nM
- GI50 (SF-539 CNS): 1630 nM
- TGI (SF-539 CNS): 3.02 µM
- GI50 (SK-MEL-2 melanoma): 1810 nM
- TGI (SK-MEL-2 melanoma): 3.64 µM
- GI50 (SK-MEL-28 melanoma): 1650 nM
- TGI (SK-MEL-28 melanoma): 3.06 µM
- GI50 (SK-MEL-5 melanoma): 1740 nM
- TGI (SK-MEL-5 melanoma): 3.58 µM
- GI50 (SN12C renal): 1780 nM
- TGI (SN12C renal): 4.16 µM
- GI50 (SNB-19 CNS): 1950 nM
- TGI (SNB-19 CNS): 4.28 µM
- GI50 (SNB-75 CNS): 1100 nM
- TGI (SNB-75 CNS): 3.06 µM
- GI50 (SW-620 colon): 2200 nM
- TGI (SW-620 colon): 5.47 µM
- GI50 (T-47D breast): 1820 nM
- TGI (T-47D breast): 4.4 µM
- GI50 (TK-10 renal): 3.12 µM
- TGI (TK-10 renal): 7.14 µM
- GI50 (U251 CNS): 1760 nM
- TGI (U251 CNS): 3.43 µM
- GI50 (UACC-257 melanoma): 1730 nM
- TGI (UACC-257 melanoma): 3.81 µM
- GI50 (UACC-62 melanoma): 1440 nM
- TGI (UACC-62 melanoma): 2800 nM
